Measured values as given in patent publication US10835507B2, “Treatment of muscular disorders with combinations of RXR agonists and thyroid hormones” (Io Therapeutics, Inc., priority 2016, dated 2020).
“Also recorded” adds a separate entry of the source.

Experiments:
[1] = test system: mouse oligodendrocyte progenitor cells (OPCs); test: Mouse oligodendrocyte progenitor cell differentiation, 5-day treatment, Example 5; format: cell-based; settings: 96-well plates, plp-EGFP mouse OPCs
Method: OPCs were derived from plp-EGFP expressing mice.
Therapeutic agents were tested in 96-well plates (6 wells per concentration). […] All media contained 0.1% DMSO. At the end of the 5-day treatment, cells were imaged on Cellomics in two channels and algorithms were used to count nuclei and EGFP+ oligodendrocytes.

RXRα = target: T1, RXRα (Homo sapiens, UniProt P19793); settings: RXR receptors vs RAR receptors
T1 sequence (P19793 1-462): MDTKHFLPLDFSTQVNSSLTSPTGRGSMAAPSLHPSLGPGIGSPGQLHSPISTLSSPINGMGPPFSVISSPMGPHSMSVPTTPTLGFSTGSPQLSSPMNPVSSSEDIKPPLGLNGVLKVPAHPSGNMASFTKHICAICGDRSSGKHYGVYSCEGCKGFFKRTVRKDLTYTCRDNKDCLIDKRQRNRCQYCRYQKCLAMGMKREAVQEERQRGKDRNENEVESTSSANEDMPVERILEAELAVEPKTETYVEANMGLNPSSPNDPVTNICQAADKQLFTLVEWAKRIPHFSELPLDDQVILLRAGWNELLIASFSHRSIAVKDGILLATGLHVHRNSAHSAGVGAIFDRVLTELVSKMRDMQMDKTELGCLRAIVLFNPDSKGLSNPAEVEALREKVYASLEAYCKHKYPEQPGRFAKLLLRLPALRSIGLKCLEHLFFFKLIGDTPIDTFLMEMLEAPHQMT
Method: To determine whether a RXR agonist can mediate its effects via RXRα receptor homodimers, RXRβ receptor homodimers, RXRγ receptor homodimers, or any combination thereof, or the corresponding RAR/RXR heterodimers, receptor-mediated transactivation assays were performed. For transactivation assays assessing RXR homodimer signaling, CV-1 cells were transfected with 1) an expression construct including a full length RXRα, RXRβ, or RXRγ; and 2) a rCRBPII/RXRE-tk-Luc reporter construct that included RXR homodimer-specific RXRE/DR1 responsive element linked to a luciferase gene. For transactivation assays assessing RAR/RXR heterodimer signaling, CV-1 cells were transfected with 1) an expression construct comprising a fusion protein including an estrogen receptor (ER) DNA binding domain linked to the ligand binding domain of RARα, RARβ, or RARγ and 2) a ERE-tk-Luc reporter construct that included an estrogen receptor responsive element linked to a luciferase gene. […] Data are mean values±SE from five independent experiments.

[2] = test system: oligodendrocyte precursor cells (OPCs); test: Oligodendrocyte precursor cell differentiation (EGFP expression), Example 4; format: cell-based, mouse
From the text: OPCs were generated from a neurosphere culture of E14.5 PLP-EGFP (on C57BL/6J background) mouse brains. […] The EGFP expressing cells were quantified with Cellomics Neuronal Profiling Algorithm.
The EGFP expressing cells in controls and all compounds were quantified with Cellomics Neuronal Profiling Algorithm.

[3] = test system: mouse model of non-immune mediated demyelination; test: 6-week cuprizone plus rapamycin demyelination model, corpus callosum histology, Example 7; format: in vivo, C57BL/6J mice; settings: IRX4204 10 mg/kg PO, T4 20 ng/g SQ, daily for 6 weeks during CR
From the text: (§1) Animals (8 week-old male C57BL/6J mice) were subjected to cuprizone diet plus rapamycin injections (CR) for 6 weeks to induce demyelination. […] All animals were sacrificed after 6 weeks of CR to evaluate axonal integrity and microglial/macrophage activity in the white matter (corpus callosum, CC).
The floating brain sections were immunostained with SMI-32 to visualize and quantify axonal ovoids in the CC.
The floating brain sections were immunostained with lba-1 to visualize and quantify microglia/macrophages in CC.

Pluripotent P19 cells = test: Myogenic differentiation of pluripotent P19 cells; format: cell-based; settings: approximately 1 nM to about 1 μM, 1% DMSO; present-tense example
Method: Cells fixed to cover slips are then incubated with primary antibodies for skeletal muscle markers and then labeled with secondary antibodies. Microscopy analysis is performed and the number of skeletal myocytes quantified.

[4] = test system: embryonic stem cells (ES); test: Myogenic conversion of embryonic stem cells (embryoid bodies); format: cell-based; settings: embryoid bodies without DMSO, approximately 1 nM to about 1 μM; present-tense example
From the text: To test the potency of RXRs on myogenic conversion of embryonic stem cells (ES), embryoid bodies are formed without DMSO. […] Myoblasts are examined through microscopy and the number of myocytes counted.

[5] = test system: murine skeletal muscle myoblasts and primary myoblasts; test: Myoblast differentiation; format: cell-based; settings: about 10 nM to about 1 μM; present-tense example
Method: In order to determine and compare the efficacy of IRX4204 and IRX4204+thyroxine in myoblast differentiation, murine skeletal muscle myoblasts and primary myoblasts are cultured. Myogenic differentiation is initiated when cells are approximately 60-80% confluent, with the cells being differentiated into cell types, such as myotubes.

[6] = test system: spontaneously hypertensive rats (SHRs); test: Cardiac hypertrophy in spontaneously hypertensive rats; format: in vivo, rat; settings: present-tense example; for inhibition of the increase in cardiac mass and wall thickness: SHRs at 12 weeks of age, 10 mg to 100 mg/kg
Method: Four weeks old SHRs and control rats are randomized and put into groups of 5-10 rats/group. […] Transthoratic echocardiographs are performed to determine cardiac weights and measurements.
The animals are sacrificed at 16 weeks of age to determine cardiac hypertrophy. Hypertrophy is determined by the animal's left ventricle weight to body weight ratio. The myocyte cross-sectional area is also determined. Approximately 10 mg to about 30 mg of the animal's left ventricle is homogenized and subject to sodium dodecyl sulfate polyacrylamide gel electrophoresis (SDS-PAGE) and immunoblot analysis.

[7] = Terminal T4 levels, mortality and body weight in the demyelination study, Example 7; settings: 6 weeks treatment during CR
From the text: as §1
A total of 50 animals were included in the study, where 43 animals received CR demyelination for 6 weeks. During demyelination, a subset (n=7) of animals were kept on normal diet to serve as naïve age-matched controls.

N[C@@H](Cc1cc(I)c(Oc2ccc(O)c(I)c2)c(I)c1)C(=O)O [Compound T3, triiodothyronine, reference compound]
production of EGFP+ oligodendrocytes [1]: clear dose-responses in oligodendrocyte production

CC(/C=C/[C@@H]1C[C@]1(C)c1ccc2c(c1)C(C)(C)CCC2(C)C)=C\C(=O)O [IRX4204, 3,7-dimethyl-6(S),7(S)-methano,7-[1,1,4,4-tetramethyl-1,2,3,4-tetrahydronaphth-7-yl]2(E),4(E) heptadienoic acid]
potency in activating RXR receptors rather than RAR receptors (RXRα): > 1,000 fold
total cell number and pyknotic cells compared to controls ([2]; OPC culture): did not show any differences
OPC differentiation into oligodendrocytes (EGFP positive cells) compared to negative control (DMSO) ([2]; OPCs from E14.5 PLP-EGFP mouse brains): significant increase in OPC differentiation into oligodendrocytes; also recorded: dose dependent increase in the number of the EGFP positive cells
production of EGFP+ oligodendrocytes [1]: clear dose-responses in oligodendrocyte production
Iba1 staining (microglia/macrophages) in CC compared to vehicle [3]: no difference
number of SMI32 stained axonal ovoids in CC compared to Vehicle [3]: trend towards decreased number of axonal ovoids but was not statistically different from the Vehicle
number of myogenically differentiated cells (skeletal myocytes) (Pluripotent P19 cells): higher number of myogenically differentiated cells as compared to cells treated with retinoic acid, bexarotene, or vehicle alone
potency at increasing myogenic differentiation (number of myocytes) [4]: more potent at increasing differentiation than treatment with retinoic acid, bexarotene, or vehicle alone
myoblast differentiation (numbers of microfibers, differentiated cells) [5]: increased numbers of microfibers as compared to cells treated with thyroxine or vehicle alone
inhibition of the increase in cardiac mass and wall thickness [6]: greater inhibition of the increase in cardiac mass and wall thickness as compared to bexarotene-treated animals
RXRα expression in cardiac muscle tissue (immunoblot) ([6]; SHRs at 16 weeks of age): up-regulated more
inhibition of cardiomyocyte cross-sectional area increases ([6]; SHRs at 16 weeks of age): greater inhibition of cardiomyocyte cross-sectional area increases than treatment with bexarotene
terminal body weights vs vehicle group [7]: no significant difference

C=C(c1ccc(C(=O)O)cc1)c1cc2c(cc1C)C(C)(C)CCC2(C)C [bexarotene, 4-[1-(3,5,5,8,8-pentamethyl-6,7-dihydronaphthalen-2-yl)ethenyl]benzoic acid, reference compound]
inhibition of the increase in cardiac mass and wall thickness [6]: inhibition of the increase in cardiac mass and wall thickness as compared to vehicle-only treated SHRs
ratio of left ventricle weight to body weight ([6]; SHRs at 16 weeks of age): significantly lower ratio of left ventricle weight to body weight as compared to vehicle-only treated SHRs
